PubChem BioAssay (NCI)
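In this assay, cells in 96-well plates receive the compound at five concentrations for 48 hours. Endpoints are linearly interpolated between the surrounding concentrations. Here, GI50 denotes the concentration required for 50% inhibition of growth. TGI denotes the concentration required for complete inhibition of growth.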

How the values were obtained:
Assay in all cases: growth of human tumour cells (NCI), 48 h
[1] = test system: NCI-H226 lung
[2] = test system: NCI-H23 lung
[3] = test system: NCI-H460 lung
[4] = test system: NCI-H522 lung
[5] = test system: NCI/ADR-RES ovarian
[6] = test system: OVCAR-4 ovarian
[7] = test system: OVCAR-5 ovarian
[8] = test system: OVCAR-8 ovarian
[9] = test system: PC-3 prostate
[10] = test system: RPMI-8226 leukemia
[11] = test system: RXF 393 renal
[12] = test system: SF-268 CNS
[13] = test system: SF-295 CNS
[14] = test system: SF-539 CNS
[15] = test system: SK-MEL-2 melanoma
[16] = test system: SK-MEL-28 melanoma
[17] = test system: SK-MEL-5 melanoma
[18] = test system: SK-OV-3 ovarian
[19] = test system: SN12C renal
[20] = test system: SNB-19 CNS
[21] = test system: SNB-75 CNS
[22] = test system: SR leukemia
[23] = test system: SW-620 colon
[24] = test system: T-47D breast
[25] = test system: TK-10 renal
[26] = test system: U251 CNS
[27] = test system: UACC-257 melanoma
[28] = test system: UACC-62 melanoma
[29] = test system: UO-31 renal

O=C(NNc1nc2cc(F)ccc2n2c(CO)ccc12)c1cnccn1 was tested, and the TGI [1] was 10800 nM, the GI50 [2] was 895 nM and the TGI [2] was > 100000 nM. It also gave a GI50 [3] of 245 nM, a TGI [3] of 11000 nM and a GI50 [4] of 1010 nM. For the same molecule, the TGI [4] was 8070 nM, the GI50 [5] was 243 nM and the TGI [5] was > 24900 nM. For the same molecule, the GI50 [6] was 534 nM, the TGI [6] was > 83100 nM and the GI50 [7] was 1360 nM. The TGI [7] was > 100000 nM, the GI50 [8] was 343 nM and the TGI [8] was > 31900 nM. For the same molecule, the GI50 [9] was 780 nM, the TGI [9] was > 100000 nM and the GI50 [10] was 721 nM. The TGI [10] was > 57600 nM, the GI50 [11] was 557 nM and the TGI [11] was 10000 nM. For the same molecule, the GI50 [12] was 516 nM, the TGI [12] was > 100000 nM and the GI50 [13] was 295 nM. The TGI [13] was > 100000 nM, the GI50 [14] was 489 nM and the TGI [14] was > 100000 nM. The GI50 [15] was 1900 nM, the TGI [15] was 56400 nM and the GI50 [16] was 595 nM. The TGI [16] was > 100000 nM, the GI50 [17] was 481 nM and the TGI [17] was 3610 nM. It also gave a GI50 [18] of 543 nM, a TGI [18] of 18200 nM and a GI50 [19] of 704 nM. For the same molecule, the TGI [19] was > 100000 nM, the GI50 [20] was 665 nM and the TGI [20] was > 100000 nM. It also gave a GI50 [21] of 986 nM, a TGI [21] of 27300 nM and a GI50 [22] of 448 nM. For the same molecule, the TGI [22] was > 100000 nM, the GI50 [23] was 649 nM and the TGI [23] was > 100000 nM. The GI50 [24] was 837 nM, the TGI [24] was > 52600 nM and the GI50 [25] was 504 nM. For the same molecule, the TGI [25] was > 100000 nM, the GI50 [26] was 390 nM and the TGI [26] was > 100000 nM. The GI50 [27] was 1160 nM, the TGI [27] was 6050 nM and the GI50 [28] was 481 nM. The TGI [28] was 11200 nM, the GI50 [29] was 68.9 nM and the TGI [29] was 5050 nM.
